Test results from patent US9555039B2, “Piperidine derivatives and compositions for the inhibition of nicotinamide phosphoribosyltransferase (NAMPT)” (Forma TM, LLC., priority 2011, dated 2017).
Like-named read-outs stand apart in the source and are kept apart here.

How the values were obtained:
A2780 cells = assay: In-vitro cell proliferation assay (SRB, 72 hours); type: cell-based; details: Homo sapiens, sulforhodamine B (SRB) assay
Outline: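 Viable cells measured by TCA fixation and SRB staining, absorbance 570 nm; % inhibition vs DMSO control after media-only background subtraction, interpolated between two bracketing concentrations.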

[1] = biological target: T1, Recombinant His-tagged NAMPT (Homo sapiens, UniProt P43490); assay: Biochemical inhibition assay: NAMPT enzymatic reaction, NMN quantified by mass spectrometry; details: 33 nM NAMPT, 1 μM NAM, 100 μM PRPP, 30 minutes at room temperature, read-out: Biochem IC50
T1 construct: His; host or cells: E. coli
Outline: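 Reaction 30 min at room temperature with 1 μM NAM, 100 μM PRPP, 2.5 mM ATP (final), quenched with formic acid. NMN quantified by RapidFire electrospray MS, normalized to L-cystathionine; IC50 from percent inhibition versus DMSO.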

T1 sequence (P43490 whole entry): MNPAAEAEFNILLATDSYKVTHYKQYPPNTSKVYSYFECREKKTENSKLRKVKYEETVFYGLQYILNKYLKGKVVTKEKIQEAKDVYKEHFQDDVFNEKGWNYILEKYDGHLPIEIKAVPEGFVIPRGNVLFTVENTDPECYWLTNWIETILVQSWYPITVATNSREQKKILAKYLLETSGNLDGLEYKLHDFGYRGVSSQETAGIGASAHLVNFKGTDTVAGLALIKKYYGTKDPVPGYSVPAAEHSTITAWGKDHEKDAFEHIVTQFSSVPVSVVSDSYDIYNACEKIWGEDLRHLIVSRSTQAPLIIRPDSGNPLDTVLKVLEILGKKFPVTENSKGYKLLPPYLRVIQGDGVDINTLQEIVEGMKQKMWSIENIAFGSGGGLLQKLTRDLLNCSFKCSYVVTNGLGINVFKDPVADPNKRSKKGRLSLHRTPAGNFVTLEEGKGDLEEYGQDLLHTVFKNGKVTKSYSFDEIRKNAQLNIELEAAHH

Structure (SMILES)	IC50 (A2780 cells) [nM]	IC50 ([1]; 2.5 mM ATP) [nM]	IC50 ([1]; […] ATP) [nM]
O=C(NCCCCC1CCN(C(=O)c2ccc(Cl)cc2)CC1)c1cc2ccncc2s1 [N-(4-{1-[(4-chlorophenyl)carbonyl]piperidin-4-yl}butyl)thieno[2,3-c]pyridine-2-carboxamide]	1000 to 10000	22.8	
O=C(NCCCCC1CCN(S(=O)(=O)c2ccc(F)cc2)CC1)c1cc2cnccc2[nH]1 [N-(4-{1-[(4-fluorobenzene)sulfonyl]piperidin-4-yl}butyl)-1H-pyrrolo[3,2-c]pyridine-2-carboxamide]	17.6	48.9	
O=C(NCCCCC1CCN(C(=O)c2ccc(F)cc2)CC1)c1ccc2nccn2c1 [N-(4-{1-[(4-fluorophenyl)carbonyl]piperidin-4-yl}butyl)imidazo[1,2-a]pyridine-6-carboxamide]	26.2	12	
O=C(NCCCCC1CCN(C(=O)c2ccc(F)cc2)CC1)c1cc2ccncc2s1 [N-(4-{1-[(4-fluorophenyl)carbonyl]piperidin-4-yl}butyl)thieno[2,3-c]pyridine-2-carboxamide]	100 to 1000	51.8	
COc1ccc(C(=O)N2CCC(CCCCNC(=O)c3cc4cnccc4[nH]3)CC2)cc1 [N-(4-{1-[(4-methoxyphenyl)carbonyl]piperidin-4-yl}butyl)-1H-pyrrolo[3,2-c]pyridine-2-carboxamide]	16.3	79.7	
COc1ccc(C(=O)N2CCC(CCCCNC(=O)c3ccc4nccn4c3)CC2)cc1 [N-(4-{1-[(4-methoxyphenyl)carbonyl]piperidin-4-yl}butyl)imidazo[1,2-a]pyridine-6-carboxamide]	57.6	23.2	
COc1ccc(C(=O)N2CCC(CCCCNC(=O)c3cc4ccncc4s3)CC2)cc1 [N-(4-{1-[(4-methoxyphenyl)carbonyl]piperidin-4-yl}butyl)thieno[2,3-c]pyridine-2-carboxamide]	80.3	52.2	
Cc1ncsc1C(=O)N1CCC(CCCCNC(=O)c2cc3cnccc3[nH]2)CC1 [N-(4-{1-[(4-methyl-1,3-thiazol-5-yl)carbonyl]piperidin-4-yl}butyl)-1H-pyrrolo[3,2-c]pyridine-2-carboxamide]	1		5.4
Cc1ncsc1C(=O)N1CCC(CCCCNC(=O)c2ccc3nccn3c2)CC1 [N-(4-{1-[(4-methyl-1,3-thiazol-5-yl)carbonyl]piperidin-4-yl}butyl)imidazo[1,2-a]pyridine-6-carboxamide]	0.8	2.9	
Cc1ncsc1C(=O)N1CCC(CCCCNC(=O)c2cc3ccncc3s2)CC1 [N-(4-{1-[(4-methyl-1,3-thiazol-5-yl)carbonyl]piperidin-4-yl}butyl)thieno[2,3-c]pyridine-2-carboxamide]	0.8	5.3	
COc1ccc(Cl)cc1C(=O)N1CCC(CCCCNC(=O)c2ccc3nccn3c2)CC1 [N-(4-{1-[(5-chloro-2-methoxyphenyl)carbonyl]piperidin-4-yl}butyl)imidazo[1,2-a]pyridine-6-carboxamide]	3.1	10.5	
COc1ccc(Cl)cc1C(=O)N1CCC(CCCCNC(=O)c2cc3ccncc3s2)CC1 [N-(4-{1-[(5-chloro-2-methoxyphenyl)carbonyl]piperidin-4-yl}butyl)thieno[2,3-c]pyridine-2-carboxamide]	3.3	14.1	
COc1ncc(Cl)cc1C(=O)N1CCC(CCCCNC(=O)c2cc3cnccc3[nH]2)CC1 [N-(4-{1-[(5-chloro-2-methoxypyridin-3-yl)carbonyl]piperidin-4-yl}butyl)-1H-pyrrolo[3,2-c]pyridine-2-carboxamide]	3.3	30.3	
COc1ncc(Cl)cc1C(=O)N1CCC(CCCCNC(=O)c2ccc3nccn3c2)CC1 [N-(4-{1-[(5-chloro-2-methoxypyridin-3-yl)carbonyl]piperidin-4-yl}butyl)imidazo[1,2-a]pyridine-6-carboxamide]	3.3	12.3	
COc1ncc(Cl)cc1C(=O)N1CCC(CCCCNC(=O)c2cc3ccncc3s2)CC1 [N-(4-{1-[(5-chloro-2-methoxypyridin-3-yl)carbonyl]piperidin-4-yl}butyl)thieno[2,3-c]pyridine-2-carboxamide]	7.1	17	
O=C(NCCCCC1CCN(C(=O)c2cc3cc(F)ccc3[nH]2)CC1)c1cc2cnccc2[nH]1 [N-(4-{1-[(5-fluoro-1H-indol-2-yl)carbonyl]piperidin-4-yl}butyl)-1H-pyrrolo[3,2-c]pyridine-2-carboxamide]	100 to 1000	97.1	
O=C(NCCCCC1CCN(C(=O)c2cc3cc(F)ccc3[nH]2)CC1)c1cc2ccncc2s1 [N-(4-{1-[(5-fluoro-1H-indol-2-yl)carbonyl]piperidin-4-yl}butyl)thieno[2,3-c]pyridine-2-carboxamide]	1000 to 10000	30.4	
Cc1ccc(F)cc1C(=O)N1CCC(CCCCNC(=O)c2cc3cnccc3[nH]2)CC1 [N-(4-{1-[(5-fluoro-2-methylphenyl)carbonyl]piperidin-4-yl}butyl)-1H-pyrrolo[3,2-c]pyridine-2-carboxamide]	2.3	14.2	

Structure (SMILES)	IC50 (A2780 cells) [nM]	IC50 ([1]; 2.5 mM ATP) [nM]	IC50 ([1]; […] ATP) [nM]
Cc1ccc(F)cc1C(=O)N1CCC(CCCCNC(=O)c2ccc3nccn3c2)CC1 [N-(4-{1-[(5-fluoro-2-methylphenyl)carbonyl]piperidin-4-yl}butyl)imidazo[1,2-a]pyridine-6-carboxamide]	3.9	10.9	
Cc1ccc(F)cc1C(=O)N1CCC(CCCCNC(=O)c2cc3ccncc3s2)CC1 [N-(4-{1-[(5-fluoro-2-methylphenyl)carbonyl]piperidin-4-yl}butyl)thieno[2,3-c]pyridine-2-carboxamide]	1.8	4.5	
O=C(NCCCCC1CCN(C(=O)c2ccc(F)cn2)CC1)c1cc2cnccc2[nH]1 [N-(4-{1-[(5-fluoropyridin-2-yl)carbonyl]piperidin-4-yl}butyl)-1H-pyrrolo[3,2-c]pyridine-2-carboxamide]	14	57.2	
O=C(NCCCCC1CCN(C(=O)c2ccc(F)cn2)CC1)c1ccc2nccn2c1 [N-(4-{1-[(5-fluoropyridin-2-yl)carbonyl]piperidin-4-yl}butyl)imidazo[1,2-a]pyridine-6-carboxamide]	67.9	74	
O=C(NCCCCC1CCN(C(=O)c2ccc(F)cn2)CC1)c1cc2ccncc2s1 [N-(4-{1-[(5-fluoropyridin-2-yl)carbonyl]piperidin-4-yl}butyl)thieno[2,3-c]pyridine-2-carboxamide]	100 to 1000	26.5	
Cc1cnc(C(=O)N2CCC(CCCCNC(=O)c3cc4cnccc4[nH]3)CC2)cn1 [N-(4-{1-[(5-methylpyrazin-2-yl)carbonyl]piperidin-4-yl}butyl)-1H-pyrrolo[3,2-c]pyridine-2-carboxamide]	23.8	115	
Cc1cnc(C(=O)N2CCC(CCCCNC(=O)c3ccc4nccn4c3)CC2)cn1 [N-(4-{1-[(5-methylpyrazin-2-yl)carbonyl]piperidin-4-yl}butyl)imidazo[1,2-a]pyridine-6-carboxamide]	66.7	10.9	
Cc1cnc(C(=O)N2CCC(CCCCNC(=O)c3cc4ccncc4s3)CC2)cn1 [N-(4-{1-[(5-methylpyrazin-2-yl)carbonyl]piperidin-4-yl}butyl)thieno[2,3-c]pyridine-2-carboxamide]	100 to 1000	68.5	
Cc1ccc(C(=O)N2CCC(CCCCNC(=O)c3cc4cnccc4[nH]3)CC2)cn1 [N-(4-{1-[(6-methylpyridin-3-yl)carbonyl]piperidin-4-yl}butyl)-1H-pyrrolo[3,2-c]pyridine-2-carboxamide]	21.3	65.1	
Cc1ccc(C(=O)N2CCC(CCCCNC(=O)c3ccc4nccn4c3)CC2)cn1 [N-(4-{1-[(6-methylpyridin-3-yl)carbonyl]piperidin-4-yl}butyl)imidazo[1,2-a]pyridine-6-carboxamide]	73.6	23.8	
Cc1ccc(C(=O)N2CCC(CCCCNC(=O)c3cc4ccncc4s3)CC2)cn1 [N-(4-{1-[(6-methylpyridin-3-yl)carbonyl]piperidin-4-yl}butyl)thieno[2,3-c]pyridine-2-carboxamide]	100 to 1000	69.7	
Cc1nc(C)c(C(=O)N2CCC(CCCCNC(=O)c3ccc4nccn4c3)CC2)s1 [N-(4-{1-[(dimethyl-1,3-thiazol-5-yl)carbonyl]piperidin-4-yl}butyl)imidazo[1,2-a]pyridine-6-carboxamide]	6.6	24.1	
O=C(NCCCCC1CCN(C(=O)c2ccoc2)CC1)c1cc2cnccc2[nH]1 [N-(4-{1-[(furan-3-yl)carbonyl]piperidin-4-yl}butyl)-1H-pyrrolo[3,2-c]pyridine-2-carboxamide]	10.1	9.1	
O=C(NCCCCC1CCN(C(=O)c2ccoc2)CC1)c1ccc2nccn2c1 [N-(4-{1-[(furan-3-yl)carbonyl]piperidin-4-yl}butyl)imidazo[1,2-a]pyridine-6-carboxamide]	25.6	6.2	
O=C(NCCCCC1CCN(C(=O)c2ccoc2)CC1)c1cc2ccncc2s1 [N-(4-{1-[(furan-3-yl)carbonyl]piperidin-4-yl}butyl)thieno[2,3-c]pyridine-2-carboxamide]	6	4	
O=C(NCCCCC1CCN(C(=O)c2ccccn2)CC1)c1cc2cnccc2[nH]1 [N-(4-{1-[(pyridin-2-yl)carbonyl]piperidin-4-yl}butyl)-1H-pyrrolo[3,2-c]pyridine-2-carboxamide]	6.3	30.6	
O=C(NCCCCC1CCN(C(=O)c2ccccn2)CC1)c1ccc2nccn2c1 [N-(4-{1-[(pyridin-2-yl)carbonyl]piperidin-4-yl}butyl)imidazo[1,2-a]pyridine-6-carboxamide]	13.5	36.4	
